{"source": "patent US9308210B2", "about": "“Method for modulating canonical Wnt pathway using folate and inositol” (University of South Florida, priority 2009, dated 2016)", "key": {"[1]": {"system": "wound area of mouse dorsum", "assay": "Mouse 3-mm excisional wound model with topical creams (FN, β-catenin, Lgr6 localization)", "type": "in vivo", "conditions": "higher folate diet 10 mg/kg from one week prior to wounding", "source_text": "For the mouse studies the animals were divided by random assignment into experimental groups, using both sexes. Folic acid and folic acid/myo-inositol in combination were topically administered to the wound directly with an inert vanishing cream (provided by Carrollwood Pharmacy) as the vehicle of administration or also in combination with an orally administered dietary folic acid supplement. […] The creams contained (i) FA only; two doses of […] combination of higher MI to FA ratio, (iii) a combination of lower MI to FA ratio, (iv) MI only and (v) vehicle control cream. […] The control animals were maintained on normal animal chow containing 3.3 mg/kg FA to maintain health of the animals. After wounding, animals were housed separately and maintained on their respective folate diets. The animals were maintained in cages that were wood chip free on a dust free base for the first several days, to prevent bedding and bedding dust from getting into the freshly made wounds to lessen chances of infection. The animals were anesthetized using isoflurane inhalation. One 3-mm excisional circular wound was made using a dermal biopsy punch, followed by application of the experimental or control topical cream on the wound. The excised area remained uncovered and healing was closely monitored daily until wound was closed. At day 15 after wounding, the animal was euthanized. […]"}, "[2]": {"system": "Wnt pathway-associated and lipid metabolism genes", "assay": "Affymetrix microarray of E15.5 embryonic heart tissue after Li+ or HCys exposure with or without FA", "type": "in vivo, mouse", "source_text": "The inbred C57B16 mouse strain (Jackson Laboratories, Bar Harbor, Me.) was used throughout this study. It has become recognized that mouse strains can differ in their response to environmental factors (Andrikopoulos et al., 2005; Barnabei et al., 2010; Funkat et al., 2004). Thus, the mouse strain being used should be taken into consideration when comparing different studies. Morning of detection of the vaginal sperm plug was defined as embryonic day (E) 0.5. Timed-pregnant mice were randomly allocated to receive intraperitoneally (i.p.) either a single dose of 100 μl of 6.25 mg/ml of lithium chloride (Li+), as previously determined (Chen et al., 2008), 100 μl of 75 μM HCys (Han et al., 2009), or 100 μl of 0.9% physiological saline (control group). […]\nAs in the previous studies, animal chow was supplemented with 10.5 mg/kg folic acid (FA), a concentration that has been used in trial human population studies (Czeizel et al., 2013; Han et al., 2009). […] On ED 6.75 (at 5:30 PM) experimental pregnant females received Li+ or HCys by an i.p. injection that the inventors reported induces a high incidence of valve and heart defects as detected by echocardiography at mid-gestation on ED 15.5 (Han et al., 2009).\nThe inventors analyzed for gene misexpression in the embryonic heart on E15.5 of gestation, i.e., over a week after the acute exposures. […]"}, "[3]": {"conditions": "seven years after FA fortification; Quebec, Canada; cited from earlier work"}, "[4]": {"system": "Medium-Chain Acyl CoA Dehydrogenase (MCAD) protein", "assay": "Immunostaining of MCAD protein in E15.5 hearts", "type": "in vivo, mouse", "conditions": "E15.5 heart; versus control", "procedure": "Li+-, and HCys-, and control, NaCl-exposed, embryos were fixed in 4% paraformaldehyde in PBS, paraffin embedded, and sectioned. Sections were immunostained with MCAD antibodies (Sigma, St. Louis, Mo.) for the protein product of Acadm gene expression. Primary antibody localization was visualized with Cy3-secondary antibodies. Localization of gene and protein expression was analyzed with a Nikon Optiphot II phase microscope (Nikon Instruments, Inc., Melville, N.Y.). Digitized images were obtained with a Nikon DS-L2 Camera unit."}}, "note": "Where a name gives a salt, the structure may show the parent alone.", "data": [{"smiles": "Nc1nc2ncc(CNc3ccc(C(=O)N[C@@H](CCC(=O)O)C(=O)O)cc3)nc2c(=O)[nH]1", "note": "[FA, folic acid]", "values": [{"measurement": "healing with dietary supplementation", "setting": "[1]", "result": "no differences in healing"}, {"measurement": "changes in lipid metabolism gene expression with high FA supplementation", "setting": "[2]; Li or HCys exposure, FA 10.5 mg/kg diet", "result": "prevented"}, {"measurement": "yearly decrease in the prevalence of severe heart defects", "setting": "[3]", "result": 6, "unit": "%"}]}, {"smiles": "N[C@H]1CCSC1=O", "note": "[HCy, L-homocysteine thiolactone hydrochloride]", "values": [{"measurement": "Wnt pathway-associated gene expression", "setting": "[2]; E15.5 hearts after acute exposure at E6.75", "result": "significantly misexpressed"}, {"measurement": "MCAD protein", "setting": "[4]", "result": "increased"}]}]}
